# System: not listed separately
# Test: Ratio of drug level in brain against plasma in CD rat at 1 mg/kg, iv
# Assay type: ADME, organism-based
# Set-up: dose 1 mg/kg, route intravenous
# Conditions: brain and plasma
row,Kp,SMILES
1,0.8,CN1CCC(Cn2c3c(c4ccccc42)C(=O)C(N2CCN(C)CC2)C[C@H]3Oc2ccc(Cl)cc2)CC1 (stereo partly specified)

# Target: T1, Neuropeptide Y receptor type 1 (Homo sapiens, UniProt P25929)
# T1 sequence (P25929 whole entry): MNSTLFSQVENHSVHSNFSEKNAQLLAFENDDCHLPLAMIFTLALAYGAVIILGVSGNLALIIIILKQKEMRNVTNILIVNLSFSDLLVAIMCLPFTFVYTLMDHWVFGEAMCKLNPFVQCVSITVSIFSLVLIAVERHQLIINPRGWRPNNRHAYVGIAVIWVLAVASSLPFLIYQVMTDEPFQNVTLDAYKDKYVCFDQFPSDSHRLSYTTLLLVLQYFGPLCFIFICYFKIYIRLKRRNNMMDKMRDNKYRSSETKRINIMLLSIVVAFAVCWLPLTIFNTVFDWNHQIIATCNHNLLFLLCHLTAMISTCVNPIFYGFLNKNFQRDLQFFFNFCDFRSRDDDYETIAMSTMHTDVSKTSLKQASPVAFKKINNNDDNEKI
# Test: Displacement of [125I]PYY from human recombinant NPY1 receptor expressed in CHO cells
# Assay type: cell-based
# Conditions: not given
SMILES,IC50 [nM],Ki [nM]
CN1CCN(C2C[C@@H](Oc3ccc(Cl)cc3)c3c(c4ccccc4n3CCCN3CCCCC3)C2=O)CC1 (stereo partly specified),1320,
O=C1c2c(n(CCCN3CCCCC3)c3ccccc23)[C@H](Oc2ccc(Cl)cc2)CC1N1CCCCC1 (stereo partly specified),3390,
O=C1CC[C@@H](Oc2ccc(Cl)cc2)c2c1c1ccccc1n2CCCN1CCCCC1,7240,
O=C1c2c(n(CCCN3CCCCC3)c3ccccc23)[C@H](Oc2ccc(Cl)cc2)CC1N1CCNCC1 (stereo partly specified),331,
O=C1c2c(n(CCCN3CCCCC3)c3ccccc23)[C@H](Oc2ccc(Cl)cc2)CC1N1CCOCC1 (stereo partly specified),15800,
CN1CCN(C2C[C@@H](Oc3ccc(Cl)cc3)c3c(c4ccccc4n3C[C@H]3CCN(C)C[C@@H]3F)C2=O)CC1 (stereo partly specified),437,
CN1CCN(C2C[C@@H](Oc3ccc(Cl)cc3)c3c(c4ccccc4n3C[C@@H]3CCN(C)C[C@@H]3F)C2=O)CC1 (stereo partly specified),170,100
CN1CCC(Cn2c3c(c4ccccc42)C(=O)C(N2CCN(C)CC2)C[C@H]3Oc2ccc(Cl)cc2)CC1 (stereo partly specified),33.9,
CN1CCN(C2C[C@@H](Oc3ccc(Cl)cc3)c3c(c4ccccc4n3C)C2=O)CC1 (stereo partly specified),25100,

# Results, then the molecule that gave them:
IC50 [nM],Ki [nM],SMILES
3890,,CN1CCN(C2C[C@@H](Oc3ccc(Cl)cc3)c3c(c4ccccc4n3CC3CCNCC3)C2=O)CC1=O (stereo partly specified)
97.7,,CC1CCN([C@@H]2C[C@@H](Oc3ccc(Cl)cc3)c3c(c4ccccc4n3CC3CCNCC3)C2=O)CC1
93.3,,CNC1CCC(Cn2c3c(c4ccccc42)C(=O)C(N2CCN(C)CC2)C[C@H]3Oc2ccc(Cl)cc2)CC1 (stereo partly specified)
646,,CC1CCN(C2C[C@@H](Oc3ccc(Cl)cc3)c3c(c4ccccc4n3CCCN3CCCCC3)C2=O)CC1 (stereo partly specified)
776,,CN1CCN([C@@H]2C[C@@H](Oc3ccc(Cl)cc3)c3c(c4ccccc4n3CC3CCNCC3)C2=O)CC1
240,,CN1CCN(C2C[C@@H](Oc3ccc(Cl)cc3)c3c(c4ccccc4n3C[C@H]3CCNC[C@@H]3F)C2=O)CC1 (stereo partly specified)
37.2,,O=C1c2c(n(CC3CCNCC3)c3ccccc23)[C@H](Oc2ccc(Cl)cc2)CC1N1CCN(CCO)CC1 (stereo partly specified)
100,,CC1(F)CCN(C2C[C@@H](Oc3ccc(Cl)cc3)c3c(c4ccccc4n3CC3CCNCC3)C2=O)CC1 (stereo partly specified)
186,,CN1CCN(C2C[C@@H](Oc3ccc(Cl)cc3)c3c(c4ccccc4n3C[C@@H]3CCNC[C@@H]3F)C2=O)CC1 (stereo partly specified)
22.4,,CC1CCN([C@H]2C[C@@H](Oc3ccc(Cl)cc3)c3c(c4ccccc4n3CC3CCNCC3)C2=O)CC1
1860,,O=C1c2c(n(CC3CCNCC3)c3ccccc23)[C@H](Oc2ccc(Cl)cc2)CC1N1CCC(F)(F)CC1 (stereo partly specified)
49,,CN1CCN([C@H]2C[C@@H](Oc3ccc(Cl)cc3)c3c(c4ccccc4n3CC3CCNCC3)C2=O)CC1

# System: not listed separately
# Test: Oral bioavailability in CD rat at 5 mg/kg, po
# Assay type: ADME, organism-based
# Conditions: in vivo
row,bioavailability [%],SMILES
1,27,CN1CCC(Cn2c3c(c4ccccc42)C(=O)C(N2CCN(C)CC2)C[C@H]3Oc2ccc(Cl)cc2)CC1 (stereo partly specified)
2,0,CN1CCN([C@H]2C[C@@H](Oc3ccc(Cl)cc3)c3c(c4ccccc4n3CC3CCNCC3)C2=O)CC1

# System: not listed separately
# Test: Plasma clearance in CD rat at 1 mg/kg, iv
# Assay type: ADME, organism-based
# Set-up: dose 1 mg/kg, route intravenous
# Conditions: not given
row,clearance [mL/min/kg],SMILES
1,59,CN1CCC(Cn2c3c(c4ccccc42)C(=O)C(N2CCN(C)CC2)C[C@H]3Oc2ccc(Cl)cc2)CC1 (stereo partly specified)
